Test results: patent publication US20100048555A1, “IMIDAZOTHIAZOLE DERIVATIVES AS MARK INHIBITORS” (priority 2006, published 2010)

Target: T1, MARK3 (Homo sapiens, UniProt P27448)
T1 construct: purchased University of Dundee
Test: MARK 3 Assay (HTRF, Cdc25C biotinylated peptide substrate)
Type: biochemical
Conditions: recombinant MARK3 enzyme, 10 μM ATP
Method: MARK3 activity was assayed in vitro using a Cdc25C biotinylated peptide substrate (Cell Signalling Technologies). The phosphopeptide product was quantitated using a Homogenous Time-Resolved Fluorescence (HTRF) assay system (Park et al., 1999, Anal. Biochem. 269:94-104). The reaction mixture contained 50 mM HEPES/Tris-HCl, pH 7.4; 10 mM NaCl, 5 mM MgCl2, 0.2 mM NaVO4, 5 mM β-glycerol phosphate, 0.1% Tween-20, 2 mM dithiothreitol, 0.1% BSA, 10 μM ATP, 1 μM peptide substrate, and 10 nM recombinant MARK3 enzyme (University of Dundee) in a final volume of 12 μl. The buffer additionally contained protease inhibitor cocktail (Roche EDTA-free, 1 tab per 50 ml). The kinase reaction was incubated for 2 hours at 25° C., and then terminated with 3 μl Stop/Detection Buffer (50 mM HEPES, pH 7.0, 16.6 mM EDTA, 0.5M KF, 0.1% Tween-20, 0.1% BSA, 2 μg/ml SLX^ent 665 (CISBIO), and 2 μg/ml Eu^3+ cryptate label antibody (CISBIO)). The reaction was allowed to equilibrate overnight at 0° C., and relative fluorescent units were read on an HTRF enabled plate reader (e.g. TECAN GENios Pro). Inhibitor compounds were assayed in the reaction described above to determine compound IC50s. Aliquots of compound dissolved in DMSO were added to the reaction wells in a third-log dilution series covering a range of 1 nM to 10 μM. Relative phospho substrate formation, read as HTRF fluorescence units, was measured over the range of compound concentrations and a titration curve generated.

[1] = range given with mixed units (500 nM to 1 μM), units kept in the value

T1 sequence (P27448 whole entry, species assumed): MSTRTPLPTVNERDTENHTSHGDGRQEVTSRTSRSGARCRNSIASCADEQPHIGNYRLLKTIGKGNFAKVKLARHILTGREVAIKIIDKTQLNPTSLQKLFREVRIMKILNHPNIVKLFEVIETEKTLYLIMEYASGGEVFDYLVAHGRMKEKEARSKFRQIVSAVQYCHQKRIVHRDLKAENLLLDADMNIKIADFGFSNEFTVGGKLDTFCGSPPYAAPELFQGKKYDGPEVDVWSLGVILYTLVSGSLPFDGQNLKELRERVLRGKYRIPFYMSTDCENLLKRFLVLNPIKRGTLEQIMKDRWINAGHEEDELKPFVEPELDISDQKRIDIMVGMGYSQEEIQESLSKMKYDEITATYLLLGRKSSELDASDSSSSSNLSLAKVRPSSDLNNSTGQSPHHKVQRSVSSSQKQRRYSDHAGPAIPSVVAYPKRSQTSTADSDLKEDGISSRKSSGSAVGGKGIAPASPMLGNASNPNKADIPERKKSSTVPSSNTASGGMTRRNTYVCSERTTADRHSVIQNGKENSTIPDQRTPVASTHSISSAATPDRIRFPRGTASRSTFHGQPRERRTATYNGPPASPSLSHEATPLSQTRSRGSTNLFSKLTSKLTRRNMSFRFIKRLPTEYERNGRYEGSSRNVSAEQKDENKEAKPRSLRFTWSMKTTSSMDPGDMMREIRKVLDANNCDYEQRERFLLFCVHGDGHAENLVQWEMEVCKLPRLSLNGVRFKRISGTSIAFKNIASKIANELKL

Compound | IC50 (1 μM peptide substrate) [nM] | IC50 [1] [nM]
O=C(Nc1ncn2c(C(F)(F)F)csc12)c1ccc(F)cc1 [Example 1, 4-Fluoro-N-[3-(trifluoromethyl)imidazo[5,1-b][1,3]thiazol-7-yl]benzamide] | 100 to 500 | –
O=C(Nc1ncn2c(C(F)(F)F)csc12)c1ccc(O)cc1 [Example 2, 4-Hydroxy-N-[3-(trifluoromethyl)imidazo[5,1-b][1,3]thiazol-7-yl]benzamide] | – | 500 to 1000
O=C(Nc1ncn2c(C(F)(F)F)csc12)c1ccc(Cl)cc1 [Example 7, 4-Chloro-N-[3-(trifluoromethyl)imidazo[5,1-b][1,3]thiazol-7-yl]benzamide] | 100 to 500 | –
CN1CCN(c2ccc(C(=O)Nc3ncn4c(C(F)(F)F)csc34)cc2)CC1 [Example 8, 4-(4-Methylpiperazin-1-yl)-N-[3-(trifluoromethyl)imidazo[5,1-b][1,3]thiazol-7-yl]benzamide] | < 100 | –
O=C(Nc1ncn2c(C(F)(F)F)csc12)c1ccc(N2CCOCC2)cc1 [Example 9] | 100 to 500 | –
O=C(Nc1ncn2c(C(F)(F)F)csc12)c1ccc(CO)cc1 [Example 14, 4-(Hydroxymethyl)-N-[3-(trifluoromethyl)imidazo[5,1-b][1,3]thiazol-7-yl]benzamide] | 100 to 500 | 500 to 1000
CN1CCN(c2ccc(C(=O)Nc3ncn4c(C(F)(F)F)csc34)cn2)CC1 [Example 19, 6-(4-methylpiperazin-1-yl)-N-[3-(trifluoromethyl)imidazo[5,1-b][1,3]thiazol-7-yl]nicotinamide] | – | 500 to 1000

Results, then the compound that gave them:

IC50 (1 μM peptide substrate) [nM] | IC50 [1] [nM] | Compound
< 100 | – | O=C(Nc1ncn2c(C(F)(F)F)csc12)c1ccc(OCCN2CCCCC2)cc1 [Example 12, 4-(2-Piperidin-1-ylethoxy)-N-[3-(trifluoromethyl)imidazo[5,1-b][1,3]thiazol-7-yl]benzamide]
– | 500 to 1000 | O=C(Nc1ncn2c(C(F)(F)F)csc12)c1cccc(OCCN2CCCCC2)c1 [Example 13, 3-(2-Piperidin-1-ylethoxy)-N-[3-(trifluoromethyl)imidazo[5,1-b][1,3]thiazol-7-yl]benzamide]
100 to 500 | – | O=C(Nc1ncn2c(C(F)(F)F)csc12)c1ccc(CN2CCOCC2)cc1 [Example 16, 4-(Morpholin-4-ylmethyl)-N-[3-(trifluoromethyl)imidazo[5,1-b][1,3]thiazol-7-yl]benzamide]
100 to 500 | – | O=C(Nc1ncn2c(C(F)(F)F)csc12)c1ccc(CN2CCCCC2)cc1 [Example 17, 4-(Piperidin-1-ylmethyl)-N-[3-(trifluoromethyl)imidazo[5,1-b][1,3]thiazol-7-yl]benzamide]
100 to 500 | – | CN1CCN(Cc2ccc(C(=O)Nc3ncn4c(C(F)(F)F)csc34)cc2)CC1 [Example 18, 4-[(4-methylpiperazin-1-yl)methyl]-N-[3-(trifluoromethyl)imidazo[5,1-b][1,3]thiazol-7-yl]benzamide]
